# Measured values as given in patent publication US8309586B2, “Glucokinase activators and pharmaceutical compositions containing the same as an active ingredient” (LG Life Sciences Ltd., priority 2007, dated 2012).
# System: Glucokinase known as hexokinase IV (human GK isoform 1, pancreas form and human GK isoform 2, liver form)
# Test: Glucokinase enzymatic activity assay (G6PDH-coupled, NADH absorbance at 340 nm)
# Format: biochemical
# Conditions: 5 mM glucose, 1 mM ATP, 37 nM GK, 10 min at room temperature
# Description: Glucokinase known as hexokinase IV (human GK isoform 1, pancreas form and human GK isoform 2, liver form) was cloned into an expression vector pET15 fx (Novagen Co.), transformed to E. coli BL21 (DE3) (Invitrogen Co.) strain, expressed, and purified using a nickel column. Then, the glucokinase obtained from dialysis was used in the following assay.
# Glucokinase assay was performed by measuring absorbance according to the conventional manner. Briefly speaking, glucokinase converts the substrate glucose to glucose-6-phosphate under certain conditions, and glucose-6-phosphate dehydrogenase irreversibly converts glucose-6-phosphate to gluconate-6-phosphate. During this procedure, NADH is formed, and its absorbance is measured to calculate the enzymatic activity.
# In the measurement of the enzymatic activity, each compound was diluted by two-fold from the maximum to the minimum concentrations, and 2 μl of each solution was added to 96 well UV plate (BD bioscience). 60 μl of the first mixture (final concentrations 25 mM Hepes, 25 mM KCl, 2 mM MgCl2, 1 mM DTT) was added, and thoroughly mixed. 38 μl of the enzyme mixture (final concentrations 1 mM ATP, 1 mM NAD, 5 mM glucose, 0.85U G6PDH, 37 nM GK) was added (final volume 100 μl), and the mixture was reacted for 10 min at room temperature. The absorbance of NADH was measured at 340 nm using a UV spectrometer (Molecular Device).
# The enzyme activating abilities of the compounds according to the present invention are represented as AC1.5 (the compound concentration at which the enzymatic activity is increased by 1.5 times, nM), which is in the range of 0.001 uM to 30 uM or less, preferably 0.001 uM to 10 uM, more preferably 0.001 uM to 1 uM.
row,Structure (SMILES),AC1.5 (the compound concentration at which the enzymatic activity is increased by 1.5 times)
1,"c1cc(NC2CCCC2)c2[nH]c(C3=N[C@H](CCN4CCOCC4)CS3)cc2c1 [Example 143, cyclopentyl-{2-[(R)-4-(2-morpholin-4-yl-ethyl)-4,5-dihydro-thiazol-2-yl]-1H-indol-7-yl}-amine]",37 nM
2,"Clc1cc(NC2CCCC2)c2[nH]c(C3=N[C@H](CCn4cccn4)CS3)cc2c1 [Example 106, {5-chloro-2-[(R)-4-(2-pyrazol-1-yl-ethyl)-4,5-dihydro-thiazol-2-yl]-1H-indol-7-yl}-cyclopentyl-amine]",14 nM
3,"Fc1cc(NC2CCCC2)c2[nH]c(C3=N[C@H](CCN4CCOCC4)CS3)cc2c1 [Example 126, cyclopentyl-{5-fluoro-2-[(R)-4-(2-morpholin-4-yl-ethyl)-4,5-dihydro-thiazol-2-yl]-1H-indol-7-yl}-amine]",20 nM
4,"O=C(O)C[C@@H]1CSC(c2cc3cc(Cl)cc(NC4CCOCC4)c3[nH]2)=N1 [Example 31, {(R)-2-[5-chloro-7-(tetrahydro-pyran-4-ylamino)-1H-indol-2-yl]-4,5-dihydro-thiazol-4-yl}-acetic acid]",16 nM
5,"CCS(=O)(=O)N1CCN(CC[C@@H]2CSC(c3cc4cc(Cl)cc(NC5CCCC5)c4[nH]3)=N2)CC1 [Example 98, (5-chloro-2-{(R)-4-[2-(4-ethanesulfonyl-piperazin-1-yl)-ethyl]-4,5-dihydro-thiazol-2-yl}-1H-indol-7-yl)-cyclopentyl-amine]",7 nM
6,"CN1CCN(C(=O)C[C@@H]2CSC(c3cc4cc(Cl)cc(NC5CCCC5)c4[nH]3)=N2)CC1 [Example 78, 2-[(R)-2-(5-chloro-7-cyclopentylamino-1H-indol-2-yl)-4,5-dihydro-thiazol-4-yl]-1-(4-methyl-piperazin-1-yl)-ethanone]",25 nM
7,"O=C(O)C[C@@H]1CSC(c2cc3cc(Br)cc(NC4CCOCC4)c3[nH]2)=N1 [Example 35, {(R)-2-[5-bromo-7-(tetrahydro-pyran-4-ylamino)-1H-indol-2-yl]-4,5-dihydro-thiazol-4-yl}-acetic acid]",6 nM

# The remaining lines, values ahead:
row,AC1.5 (the compound concentration at which the enzymatic activity is increased by 1.5 times),Structure (SMILES)
1,27 nM,"COC(=O)C[C@@H]1CSC(c2cc3cc(OC)cc(NC4CCCC4)c3[nH]2)=N1 [Example 47, [(R)-2-(7-cyclopentylamino-5-methoxy-1H-indol-2-yl)-4,5-dihydro-thiazol-4-yl]-acetic acid methyl ester]"
2,10 nM,"CNC(=O)C[C@@H]1CSC(c2cc3cc(OC)cc(NC4CCCC4)c3[nH]2)=N1 [Example 87, 2-[(R)-2-(7-cyclopentylamino-5-methoxy-1H-indol-2-yl)-4,5-dihydro-thiazol-4-yl]-N-methyl-acetamide]"
3,23 nM,"O=C(O)COC[C@@H]1CSC(c2cc3cc(F)cc(NC4CCCC4)c3[nH]2)=N1 [Example 171, [(R)-2-(7-cyclopentylamino-5-fluoro-1H-indol-2-yl)-4,5-dihydro-thiazol-4-ylmethoxy]-acetic acid]"
4,17 nM,"CS(=O)(=O)c1ccc(Oc2cc(NC3CCCC3)c3[nH]c(C4=N[C@H](CC(=O)O)CS4)cc3c2)cc1 [Example 64, {(R)-2-[7-cyclopentylamino-5-(4-methanesulfonyl-phenoxy)-1H-indol-2-yl]-4,5-dihydro-thiazol-4-yl}-acetic acid]"
5,12 nM,"O=C(O)CC[C@@H]1CSC(c2cc3cc(Cl)cc(NC4CCCC4)c3[nH]2)=N1 [Example 149, 3-[(R)-2-(5-chloro-7-cyclopentylamino-1H-indol-2-yl)-4,5-dihydro-thiazol-4-yl]-propionic acid]"
